Laboratory results reported in patent publication US4713453A, “Oxabicycloheptane derivatives” (Suntori Limited, priority 1986, dated 1987).

How the values were obtained:
peroxylipid formation = test: Anti-lipidperoxidation effect (TBA assay of malondialdehyde in rat brain homogenate); type: biochemical, rat (male Wistar); details: for Inhibition of peroxylipid formation: 10 μl (10^-4 M) test compound in 990 μl sample, 37° C., 30 minutes, pH 7.4; for anti-lipidperoxidation effects: rat brain homogenate
Description: 3. Anti-lipidperoxidation effect
Male Wistar rats weighing 200-250 g were used. The brain of each rat was extracted after decapitation, homogenized with 50 mM of a phosphate buffer solution (PBS, pH 7.4) and centrifuged at 1,000 g for 15 minutes. The supernatant was stored frozen at -30° C. Before use, it was thawed under flowing water and diluted with PBS three-fold to prepare a live sample.
Two samples were prepared by adding 10 μl (10^-4 M) of a test compound in solution to 990 μl of the live sample. One sample was incubated at 37° C. for 30 minutes and reaction was quenched by addition of 0.2 ml of 35% aqueous perchloric acid. The other sample was immediately mixed with 35% perchloric acid without incubation. Each of the mixtures was centrifuged at 3,000 rpm for 15 minutes and 0.5 ml of the supernatant was subjected to TBA assay (Yagi et al., Anal. Biochem., 95, 351 (1979)) for determining the malondialdehyde (MDA) content (×10^-4 M) by subtracting the peroxylipid level for the unincubated mixture from that for the incubated mixture. The percent inhibition of peroxylipid formation was calculated by the following formula: [formula] where A is the MDA content of a treated sample and B is the value for a control sample that was not treated with any test compound.

Male ddY mice [1] = test: Anti-hypoxia effect (brain protection in low-oxygen state after evacuation): survival time; type: in vivo, mouse (male ddY); details: intraperitoneal, 180 mmHg
Description: 2. Anti-hypoxia effect (i.e., […] protection in low-oxygen state after evacuation)
Male ddY m8mice weighing 22-30 g were used in groups each consisting of 7-10 animals. The mice were placed in a desiccator (capacity: ca. 1,000 ml) which was evacuated with a vacuum pump to an internal pressure of 180 mmHg after intraperitoneal administration of test compounds. The survival time, or the duration of time between the start of evacuation and the cessation of breathing, was measured, and this was compared with the value for a vehicle group. Any survival time longer than a period of 15 minutes after application of a hypoxia load was counted as 15 minutes.

[2] = test system: scopolamine amnesia mouse; test: Anti-amnesia effect (scopolamine-induced retrograde amnesia), step-through passive avoidance; type: in vivo, mouse (male ddY); details: ip, 24 h, significant prolongation of step-through latency, intraperitoneal, scopolamine 0.5 mg/kg s.c., read-out: Minimum effective amount
Description: 6a. Anti-amnesia effect (i.e., capability of preventing scopolamine-inducedretrograde amnesia)
Five-week old male ddY weighing 25-30 g were used in groups each consisting of 10 animals. Memory retention deficit induced by scopolamine was evaluated by two-compartment step-through passive avoidance task. […] The floor of the dark compartment was provided with a current-conducting grid.
The experimental method was as follows. A scopolamine amnesia mouse that had been given subcutaneous injection of 0.5 mg/kg of an aqueous solution of scopolamine borate 20 minutes before was placed in the light compartment and when its forefeet touched the grid floor of the dark compartment, a current of 0.6 mA was applied to give a foot shock to the mouse (acquired conation). Immediately thereafter, a selected test compound or a control (physiological saline solution) was administered intraperitoneally. Twenty-four hours later, the mouse was replaced in the light compartment and the step-through latency, or the time required for the mouse to move to the dark compartment, was measured for a period of up to 300 seconds (test conation). The minimum effective amount of the test compound that provided a significant prolongation of the step-through latency over the control was determined.

Male ddY mice [3] = test: Anti-cerebroischemic effect (brain protection after ischemia by decapitation): gasping time; type: in vivo, mouse (male ddY); details: intraperitoneal, 30 min before decapitation
Description: 1. Anti-cerebroischemic effect (i.e., brain protection after ischemia by decapitation)
Male ddY mice weighing 22-30 g were used in groups each consisting of 6 animals. Test compounds were administered intraperitoneally to the mice which were decapitated 30 minutes after the administration. The gasping time, or the duration of time between the onset of panting after decapitation and its cessation, was measured, and this was compared with the gasping time for a control group which were given only a liquid vehicle.

Compound	Inhibition of peroxylipid formation (peroxylipid formation) [%]	prolongation of survival time (Male ddY mice [1]; 12.5 mg/kg)	prolongation of gasping time (Male ddY mice [3]; 25 mg/kg)	also measured
CC(CON=C1c2ccccc2OC2(c3ccccc3)CC12)CN(C)C (stereo not shown) [Example 4, 3,4-Benzo-5-(3-dimethylamino-2-methylpropyl)-oxyimino-1-phenyl-2-oxabicyclo[4.1.0]heptane]	56.0	significantly prolonging the survival time		
CN(C)CCCCOC1c2ccccc2OC2(c3ccccc3)CC12 (stereo not shown) [Example 30, 3,4-Benzo-5-(4-dimethylaminobutyl)oxy-1-phenyl-2-oxabicyclo[4.1.0]heptane]		significantly prolonging the survival time	significantly prolonging the gasping time	minimal effective dose [2]: 12.5 mg/kg; prolongation of survival time (Male ddY mice [1]; 6.25 mg/kg or smaller): significant prolongation of the survival time
CN(C)CCCON=C1c2ccc(O)cc2OC2(c3ccccc3)CC12 (stereo not shown) [Example 34, 3,4-(3-Hydroxybenzo)-5-(3-dimethylaminopropyl)oxyimino-1-phenyl-2-oxabicyclo[4.1.0]heptane]	79.9			
CN(C)CCOC1c2ccccc2OC2(c3ccccc3)CC12 (stereo not shown) [Example 23, 3,4-Benzo-5-(2-dimethylaminoethyl)oxy-1-phenyl-2-oxabicyclo[4.1.0]heptane]			significantly prolonging the gasping time	minimal effective dose [2]: 50 mg/kg; prolongation of gasping time (Male ddY mice [3]; 12.5 mg/kg): significant prolongation of the gasping time
CN(C)CCON=C1c2ccccc2OC2(c3ccccc3)CC12 (stereo not shown) [Example 1, 3,4-Benzo-5-(2-dimethylaminoethyl)oxyimino-1-phenyl-2-oxabicyclo[4.1.0]heptane]	56.9		significantly prolonging the gasping time	
CN(C)CCOC1c2ccc(Cl)cc2OC2(c3ccccc3)CC12 (stereo not shown) [Example 26, 3,4-(3-Chlorobenzo)-5-(2-dimethylaminoethyl)oxy-1-phenyl-2-oxabicyclo[4.1.0]heptane]	79.1		significantly prolonging the gasping time	
CN(C)CCCON=C1c2ccc(Cl)cc2OC2(c3ccccc3)CC12 (stereo not shown) [Example 9]	82.7		significantly prolonging the gasping time	anti-lipidperoxidation effects (peroxylipid formation): strong anti-lipidperoxidation effects
COc1ccc2c(c1)OC1(c3ccccc3)CC1C2=NOCCN(C)C (stereo not shown) [Example 7, 3,4-(3-Methoxybenzo)-5-(2-dimethylaminoethyl)oxyimino-1-phenyl-2-oxabicyclo[4.1.0]heptane]			significantly prolonging the gasping time	minimal effective dose [2]: 20 mg/kg
CN(C)CCON=C1c2ccc(Cl)cc2OC2(c3ccccc3)CC12 (stereo not shown) [Example 8, 3,4-(3-Chlorobenzo)-5-(2-dimethylaminoethyl)oxaimino-1-phenyl-2-oxabicyclo[4.1.0]heptane]	90.2		significantly prolonging the gasping time	anti-lipidperoxidation effects (peroxylipid formation): strong anti-lipidperoxidation effects
CN(C)CCCCCON=C1c2ccccc2OC2(c3ccccc3)CC12 (stereo not shown) [Example 21, 3,4-Benzo-5-(5-dimethylaminopentyl)oxyimino-1-phenyl-2-oxabicyclo[4.1.0]heptane]	62.1	significantly prolonging the survival time	significantly prolonging the gasping time	minimal effective dose [2]: 25 mg/kg; prolongation of gasping time (Male ddY mice [3]; 12.5 mg/kg): significant prolongation of the gasping time
CN(C)CCCCCCOC1c2ccccc2OC2(c3ccccc3)CC12 (stereo not shown) [Example 31]		significantly prolonging the survival time		prolongation of survival time (Male ddY mice [1]; 6.25 mg/kg or smaller): significant prolongation of the survival time
CN(C)CCCOC1c2ccccc2OC2(c3ccccc3)CC12 (stereo not shown) [Example 24, 3,4-Benzo-5-(3-dimethylaminopropyl)oxy-1-phenyl-2-oxabicyclo[4.1.0]heptane]			significantly prolonging the gasping time	prolongation of gasping time (Male ddY mice [3]; 12.5 mg/kg): significant prolongation of the gasping time
COc1ccc2c(c1)OC1(c3ccccc3)CC1C2OCCN(C)C (stereo not shown) [Example 28, 3,4-(3-Methoxybenzo)-5-(2-dimethylaminoethyl)oxy-1-phenyl-2-oxabicyclo[4.1.0]heptane]	77.6		significantly prolonging the gasping time	minimal effective dose [2]: 12.5 mg/kg; prolongation of gasping time (Male ddY mice [3]; 12.5 mg/kg): significant prolongation of the gasping time
CN(C)CCCON=C1c2ccc(Cl)cc2OC2(c3ccc([N+](=O)[O-])cc3)CC12 (stereo not shown) [Example 12, 3,4-(3-Chlorobenzo)-5-(3-dimethylaminopropyl)oxyimino-1-(4-nitrophenyl)-2-oxabicyclo[4.1.0]heptane]	99.0			anti-lipidperoxidation effects (peroxylipid formation): strong anti-lipidperoxidation effects
CN(C)CCCOC1c2ccc(Cl)cc2OC2(c3ccccc3)CC12 (stereo not shown) [Example 27, 3,4-(3-Chlorobenzo)-5-(3-dimethylaminopropyl)oxy-1-phenyl-2-oxabicyclo[4.1.0]heptane]	62.0		significantly prolonging the gasping time	prolongation of gasping time (Male ddY mice [3]; 12.5 mg/kg): significant prolongation of the gasping time
CN(C)CCCON=C1c2ccccc2OC2(c3cccs3)CC12 (stereo not shown) [Example 11, 3,4-Benzo-5-(3-dimethylaminopropylo)xyimino-1-thienyl-2-oxabicyclo[4.1.0]heptane]		significantly prolonging the survival time		
c1ccc(C23CC2C(=NOCCC24CCCN2CCC4)c2ccccc2O3)cc1 (stereo not shown) [Example 5, 3,4-Benzo-5-(2-pyrrolizidin-8-ylethyl)oxyimino-1-phenyl-2-oxabicyclo[4.1.0]heptane]	96.5	significantly prolonging the survival time		anti-lipidperoxidation effects (peroxylipid formation): strong anti-lipidperoxidation effects
CNCCCON=C1c2ccccc2OC2(c3ccccc3)CC12 (stereo not shown) [Example 15, 3,4-Benzo-5-(3-methylaminopropyl)oxyimino-1-phenyl-2-oxabicyclo[4.1.0]heptane]	85.7	significantly prolonging the survival time		anti-lipidperoxidation effects (peroxylipid formation): strong anti-lipidperoxidation effects
CCN(CC)CCCON=C1c2ccccc2OC2(c3ccccc3)CC12 (stereo not shown) [Example 16]	83.3			anti-lipidperoxidation effects (peroxylipid formation): strong anti-lipidperoxidation effects
CN(C)CCCOC1c2ccc(O)cc2OC2(c3ccccc3)CC12 (stereo not shown) [Example 35, 3,4-(3-Hydroxybenzo)-5-(3-dimethylaminopropyl)oxy-1-phenyl-2-oxabicyclo[4.1.0]heptane]	69.0			
CN(C)CCCCON=C1c2ccccc2OC2(c3ccccc3)CC12 (stereo not shown) [Example 19, 3,4-Benzo-5-(4-dimethylaminobutyl)oxyimino-1-phenyl-2-oxabicyclo[4.1.0]heptane]	52.6			
CNCCCCON=C1c2ccccc2OC2(c3ccccc3)CC12 (stereo not shown) [Example 20, 3,4-Benzo-5-(4-methylaminobutyl)oxyimino-1-phenyl-2-oxabicyclo[4.1.0]heptan]			significantly prolonging the gasping time	
